We go through one molecule from publication PMC9503112, “Synthesis, Molecular Docking, In Vitro and In Vivo Studies of Novel Dimorpholinoquinazoline-Based Potential Inhibitors of PI3K/Akt/mTOR Pathway” (International Journal of Molecular Sciences, 2022).

“Also recorded” adds a separate entry of the source.

In experiment [1] the test system is MDA-MB-231. Kind of experiment: Antiproliferative activity, MTT assay. In kind it is cell-based, human. The method, then:
Human breast cancer MCF7, MDA-MB-231, SkBr-3 (purchased from the ATCC collection), human keratinocytes HaCaT, murine fibroblasts L929 and macrophages J774 cells (Collection of Shemyakin-Ovchinnikov Institute of Bioorganic Chemistry RAS) were cultured in standard DMEM or RPMI-1640 medium (ThermoScientific, Waltham, MA, USA) supplemented with 10% fetal bovine serum (FBS, Cytiva, Marlborough, MA, USA) at 37 °C, 5 % CO2 and 80–85% humidity (NuAir CO2 incubator). The cell growth was evaluated by MTT (3-[4,5-dimethylthiazol-2-yl]-2,5-diphenyltetrazolium bromide) test. Cells were seeded at a density of 5 × 10^3 cells per well in 96-well flat-bottomed plates (TPP). The compounds were dissolved in DMSO (AppliChem) to 10 mM before the experiments, and then the resulting solutions were diluted by the medium to the required concentrations. Solutions of the tested compounds with different concentrations in 100 μL of the medium were added and the cells were grown for 72 h. MTT (10 μL/well, 5 mg/mL) was added for the final 3 h. The formazan purple crystals were dissolved in DMSO (100 μL per well). The absorbance of solutions was measured at 540 nm with a MultiScan reader (ThermoFisher). Results were analyzed by Excel package (Microsoft). The inhibition of proliferation (inhibitory index) was calculated as [1–(ODexperiment/ODcontrol)], where OD was MTT optical density. IC50 (Table 1) was determined as the concentration giving 50% of inhibition in the comparison with it […].

Experiment [2] has as its system MCF7 cells. Kind of experiment: MCF7 proliferation with 7c in combination with metformin. Conditions: 7c combined with metformin; printed as up to 4 nM. The class given is cell-based, human. The text has this:
Hyperglycemia is one of the most frequent side effects of pan- and isoform-selective PI3K inhibitors. Drug-induced inhibition of PI3K reduces glucose uptake that stimulates insulin secretion. Long-term therapy with PI3K inhibitors can cause insulin resistance. […] We have previously analyzed the antiproliferative potency of metformin (MF) against MCF7 breast cancer cells. Metformin induced a partial restoration of the cancer cell sensitivity to hormonal and target drugs. MF caused 50% suppression of MCF7 cell growth at a concentration of 5.8 mM [54]. Based on this fact, MF at the concentrations that had no significant antiproliferative effect was used in the combination with the lead compound. […]
Human breast cancer MCF7, MDA-MB-231, SkBr-3 (purchased from the ATCC collection), human keratinocytes HaCaT, murine fibroblasts L929 and macrophages J774 cells (Collection of Shemyakin-Ovchinnikov Institute of Bioorganic Chemistry RAS) were cultured in standard DMEM or RPMI-1640 medium (ThermoScientific, Waltham, MA, USA) supplemented with 10% fetal bovine serum (FBS, Cytiva, Marlborough, MA, USA) at 37 °C, 5 % CO2 and 80–85% humidity (NuAir CO2 incubator). The cell growth was evaluated by MTT (3-[4,5-dimethylthiazol-2-yl]-2,5-diphenyltetrazolium bromide) test. […] The absorbance of solutions was measured at 540 nm with a MultiScan reader (ThermoFisher). […]

For experiment [3], the target named is T1, recombinant PI3K (p110α/p85α) (Homo sapiens, UniProt P42336).
T1 construct: purchased Millipore 14-602
Kind of experiment: PI3K inhibition assay (HTRF). The class given is biochemical. To be noted: FRET/HTRF detection; approximate; read-out: IC50 PI3Kα. The method, then: The PI 3-Kinase (Class I) HTRF Assay Kit (Cat# 33-016 from Millipore) was used to determine the activity of recombinant PI3K (p110α/p85α) human (Cat# 14-602 from Millipore). The kit was supplemented with ATP (Cat# A26209 from Sigma-Aldrich, St. Louis, MI, USA), DL-dithiothreitol (Cat# S-[…]-1 from Sigma-Aldrich), and Wortmannin inhibitor (Cat# 12-338 from Millipore, Burlington, MA, USA). The latter was used at 0.1 μM concentration. For measurements, a Victor ×5 plate reader (PerkinElmer, 2030, Waltham, MA, USA) was used in TRF mode with excitation at 340 nm. Fluorescence emission was recorded at 613 and 670 nm in a 384-well plate (Cat# S-CLS3658 from Sigma-Aldrich) at a time interval of 150-350 μs. The enzymatic reaction and the determination of its products were carried out according to the recommendations of the reagent kit manufacturer (Millipore) in two wells for each sample. In calculations, readings in parallel wells were averaged. The calculations were made according to the recommendations of the equipment manufacturer.

The test system of experiment [4] is SkBr-3 cells. Nature of the experiment: Cell cycle analysis (PI-stained DNA, flow cytometry). In kind it is cell-based, human. The method, then:
The cell cycle was analyzed using PI-stained DNA. Cells from the compounds 7 treated cultures were collected at 24, 48, and 72 h, trypsinized, washed in ice-cold PBS, fixed by the addition of 70% ethanol and left for 2 h at −20 °C. Thereafter, the cells were washed twice in PBS, stained with 50 μg/mL of propidium iodide (Sigma, Merck KGaA, Darmstadt, Germany) in PBS, treated with 10 µg/mL of RNAse and analyzed by flow cytometry using FACScan device (BD, USA). A total of 2000 events were collected. The results were analyzed using FlowJo 10 software (BD, Franklin Lakes, NJ, USA).
A general note: A flow cytometer gives signals particle by particle.

For experiment [5], the system named is colorectal murine tumor Colon26. Kind of experiment: In vivo tumor growth. The arrangement: species or system BALB/c mice. The method, then: Murine colorectal CT26 (ATCC, CRL-2639) adenocarcinoma tumor cell line was used in the study. Cells were grown in RPMI-1640 supplemented with 10% fetal calf serum (FCS) and pen-strep-glut (all from PanEco, Moscow, Russian Federation). Cells were passaged by trypsinization using Trypsin/EDTA solution (PanEco, Moscow, Russian Federation) twice a week. Cell authentication was not performed by the authors.
Six- to eight-week-old female BALB/c mice were obtained from the Pushchino branch of Shemyakin-Ovchinnikov Institute of Bioorganic Chemistry RAS. All studies were conducted in an AAALAC accredited facility in compliance with the PHS Guidelines for the Care and Use of Animals in Research, protocol #325 from 24.05.2021
Colon-26 cells (10^5) were subcutaneously (s.c.) injected into the depilated flanks of 6-week-old female BALB/c mice. Mice (n = 20) were divided in three groups: control mice (n = 8) were injected with vehicle only; mice from group 1 (n = 6) and 2 (n = 6) were treated with 50 µL of 1 mM 7c injected s.c. near the tumors. […] The perpendicular diameter of each tumor was measured twice a week, and tumor volume was calculated using the following formula: tumor volume (mm^3) = a × b^2 × 0.5, where a represents the longest diameter, b represents the shortest diameter, and 0.5 is a constant used to calculate the volume of an ellipsoid. […]

T1 sequence (P42336 whole entry): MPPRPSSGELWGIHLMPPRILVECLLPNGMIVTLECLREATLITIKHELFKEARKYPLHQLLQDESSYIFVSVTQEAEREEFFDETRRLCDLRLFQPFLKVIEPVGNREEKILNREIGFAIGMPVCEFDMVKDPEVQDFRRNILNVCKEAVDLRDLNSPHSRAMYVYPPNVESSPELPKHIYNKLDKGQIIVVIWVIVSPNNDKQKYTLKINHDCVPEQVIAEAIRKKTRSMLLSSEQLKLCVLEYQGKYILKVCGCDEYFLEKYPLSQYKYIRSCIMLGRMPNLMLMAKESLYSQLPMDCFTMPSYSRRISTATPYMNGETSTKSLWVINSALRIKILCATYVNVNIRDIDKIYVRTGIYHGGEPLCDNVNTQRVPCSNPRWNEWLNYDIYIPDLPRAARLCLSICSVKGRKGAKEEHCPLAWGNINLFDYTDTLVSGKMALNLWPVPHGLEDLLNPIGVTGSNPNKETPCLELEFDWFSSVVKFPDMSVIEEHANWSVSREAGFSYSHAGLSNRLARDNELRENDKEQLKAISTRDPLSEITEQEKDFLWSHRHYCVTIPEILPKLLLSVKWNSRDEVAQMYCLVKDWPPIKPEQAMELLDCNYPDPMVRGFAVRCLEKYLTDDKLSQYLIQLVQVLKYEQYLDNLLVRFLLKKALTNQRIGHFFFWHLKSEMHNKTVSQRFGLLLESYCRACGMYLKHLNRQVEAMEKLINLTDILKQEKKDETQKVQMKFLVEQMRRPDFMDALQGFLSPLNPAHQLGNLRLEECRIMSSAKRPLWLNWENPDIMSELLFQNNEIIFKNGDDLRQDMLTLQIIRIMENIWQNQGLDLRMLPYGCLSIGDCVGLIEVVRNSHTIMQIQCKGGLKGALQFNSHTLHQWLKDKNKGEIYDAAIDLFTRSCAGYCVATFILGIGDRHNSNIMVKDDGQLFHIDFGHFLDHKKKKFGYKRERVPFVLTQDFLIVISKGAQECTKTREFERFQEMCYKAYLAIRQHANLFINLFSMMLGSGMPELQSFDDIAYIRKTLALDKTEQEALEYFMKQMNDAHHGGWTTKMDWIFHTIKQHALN
T1 sequence (P27986 whole entry partner): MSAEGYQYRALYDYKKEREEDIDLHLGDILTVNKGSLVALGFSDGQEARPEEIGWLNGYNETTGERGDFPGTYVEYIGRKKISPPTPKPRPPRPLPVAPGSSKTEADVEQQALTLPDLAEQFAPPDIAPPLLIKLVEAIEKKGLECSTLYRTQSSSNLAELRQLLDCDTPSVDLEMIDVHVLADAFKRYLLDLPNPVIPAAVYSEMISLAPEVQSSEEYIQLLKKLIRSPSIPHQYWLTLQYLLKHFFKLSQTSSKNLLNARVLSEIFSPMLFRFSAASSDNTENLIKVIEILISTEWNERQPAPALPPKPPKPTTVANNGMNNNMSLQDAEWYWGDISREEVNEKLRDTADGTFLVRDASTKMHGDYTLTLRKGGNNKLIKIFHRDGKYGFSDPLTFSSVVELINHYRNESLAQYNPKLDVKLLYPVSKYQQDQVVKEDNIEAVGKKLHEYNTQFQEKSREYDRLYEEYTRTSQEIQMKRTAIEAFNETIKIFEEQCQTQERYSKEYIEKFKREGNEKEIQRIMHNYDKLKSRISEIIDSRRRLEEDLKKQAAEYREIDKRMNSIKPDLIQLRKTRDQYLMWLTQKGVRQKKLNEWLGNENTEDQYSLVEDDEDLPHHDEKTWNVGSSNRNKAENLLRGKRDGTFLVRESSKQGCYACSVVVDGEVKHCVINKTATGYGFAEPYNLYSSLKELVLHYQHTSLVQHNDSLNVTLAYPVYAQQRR

For `O=C(NCCc1cccnc1)Nc1ccc(-c2ccc3c(N4CCOCC4)nc(N4CCOCC4)nc3c2)cc1` [Compound 7c, 1-(4-(2,4-Dimorpholinoquinazolin-7-yl)phenyl)-3-(2-(pyridin-3-yl)ethyl)urea], the midpoint of inhibition in experiment [1] (Homo sapiens, MDA-MB-231, MTT, 72 h, standard deviations within 50%), the IC50, lay at 1 µM. Further, the “Toxicity for MDA-MB-231 (wild type PI3K) lower than for MCF7 (mutant PI3K)” value in experiment [1] (MDA-MB-231 versus MCF7) was determined as 5 times. In addition, the “Antiproliferative activity in combination with metformin” value in experiment [2] was “up to 4 nM”. The IC50 (in general, the concentration that inhibits the measured activity by half) in experiment [3] was about 500 µM. For the same molecule, in experiment [4], the “Concentration above which all cells died” value is recorded as “higher than 10 μM” and the “Concentration below which no changes in the cell cycle were found” value is “below 1 μM”. For the same molecule, the “Effect on tumor growth, late treatment of large tumors (group 2)” value in experiment [5] (50 µL of 1 mM 7c s.c. around tumor, from 400–500 mm^3, three injections) is on record as “less evident but still significant; also recorded: tumor destruction”. Besides, the “Effect on tumor growth, early treatment (group 1)” value in experiment [5] (50 µL of 1 mM 7c s.c. near tumor, once in 3 days, from 2–8 mm^3, post three injections, p < 0.05) is recorded as “significant”.
